This note sets out measurements from US10093660B2, “Sulfoximine substituted quinazolines for pharmaceutical compositions” (EVOTEC INTERNATIONAL GMBH, priority 2013, dated 2018).

The structures appear in SMILES notation.

The target of one experiment is MNK2a (Homo sapiens (Human), UniProt Q9HBH9). Nature of the experiment: MNK2a in vitro kinase assay (Assay 2), ADP-Glo. Format: biochemical.
Chain of MNK2a (Q9HBH9 whole entry): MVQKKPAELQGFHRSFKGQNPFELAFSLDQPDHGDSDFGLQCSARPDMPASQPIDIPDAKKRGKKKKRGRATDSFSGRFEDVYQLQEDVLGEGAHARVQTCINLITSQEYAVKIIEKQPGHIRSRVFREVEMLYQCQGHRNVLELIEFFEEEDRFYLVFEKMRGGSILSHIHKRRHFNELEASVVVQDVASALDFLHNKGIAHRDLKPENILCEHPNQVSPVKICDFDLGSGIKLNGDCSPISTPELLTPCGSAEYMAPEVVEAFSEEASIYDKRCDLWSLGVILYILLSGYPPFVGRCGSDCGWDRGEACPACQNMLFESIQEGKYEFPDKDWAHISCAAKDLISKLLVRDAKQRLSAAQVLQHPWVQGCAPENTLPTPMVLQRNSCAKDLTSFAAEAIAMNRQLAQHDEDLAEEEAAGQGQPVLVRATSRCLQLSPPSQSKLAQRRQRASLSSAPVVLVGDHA
Details: not given
The text has this: B. MNK2a In Vitro Kinase Assay (Assay 2)
`CO[C@@H]1COC[C@@H]1Oc1cc(F)ccc1Nc1ncnc2cc(N=S(C)(C)=O)cc(C)c12` (racemic) [Example 2.9]: the IC50 (usually the concentration at which inhibition is half-maximal) was 4 nM.

Staying with this experiment, now noted: assay 2; read-out: MNK2 IC50.
Regarding `COc1cc(N=S2(=O)CCC(O)CC2)cc2ncnc(Nc3ccc(F)cc3O[C@H]3COC[C@H]3O)c12` (mixture of isomers) [Example 9.25], the IC50 worked out at 26 nM.
Same read-out and setting: then `COc1cc(N=S(C)(=O)c2ccncc2)cc2ncnc(Nc3ccc(F)cc3O[C@H]3COC[C@H]3O)c12` (mixture of isomers) [Example 9.27], with 86 nM; and `CO[C@H]1COC[C@H]1Oc1ncccc1Nc1ncnc2cc(N=S3(=O)CCCC3)cc(C)c12` (racemic) [Example 2.2], with 6 nM; and `Cc1cc(N=S(C)(C)=O)cc2ncnc(Nc3cccnc3O[C@H]3COC[C@H]3OCCF)c12` (racemic) [Example 2.26], with 3 nM.
Consider `O=S1(=Nc2cc(F)c3c(Nc4ccc(F)cc4O[C@@H]4COC[C@@H]4O)ncnc3c2)CCC1` (racemic) [Example 2.87], for which the IC50 was determined as 10 nM.
Turning to `CS(=O)(=Nc1cc(F)c2c(Nc3ccc(F)cc3O[C@@H]3COC[C@@H]3O)ncnc2c1)c1cccnc1` (mixture of isomers) [Example 2.89], the IC50 was found to be 51 nM.
As to `CC(C)S(C)(=O)=Nc1cc(F)c2c(Nc3ccc(F)cc3O[C@@H]3COC[C@@H]3O)ncnc2c1` (mixture of isomers) [Example 2.90], the 50% inhibitory concentration (IC50) is 70 nM.
Turning to `CS(=O)(=Nc1cc(F)c2c(Nc3ccc(F)cc3O[C@@H]3COC[C@@H]3O)ncnc2c1)C1CC1` (mixture of isomers) [Example 2.91], the concentration for half-maximal inhibition (IC50) stood at 106 nM.
The same measure, in the same setting: in the case of `O=S1(=Nc2cc(F)c3c(Nc4ccc(F)cc4O[C@@H]4COC[C@@H]4O)ncnc3c2)CCC(O)CC1` (mixture of isomers) [Example 2.94] it was 39 nM; in that of `CS(=O)(=Nc1cc(F)c2c(Nc3ccc(F)cc3O[C@@H]3COC[C@@H]3O)ncnc2c1)c1ccccc1` (mixture of isomers) [Example 2.95], 54 nM.
As to `CC1CCS(=O)(=Nc2cc(F)c3c(Nc4ccc(F)cc4O[C@@H]4COC[C@@H]4O)ncnc3c2)C1` (mixture of isomers) [Example 2.96], the IC50 came to 9 nM.
On the same count and under the same terms, in the case of `Cc1cc(N=S(C)(C)=O)cc2ncnc(Nc3ccc(F)cc3O[C@@H]3C[C@@H]4CC[C@H]3O4)c12` (racemic) [Example 2.98] it was 6 nM; in that of `Cc1cc(N=S(C)(C)=O)cc2ncnc(Nc3ccc(F)cc3O[C@H]3C[C@@H]4CO[C@H]3C4)c12` (racemic) [Example 2.99], 3 nM; in that of `Cc1cc(N=S(C)(C)=O)cc2ncnc(Nc3ccc(F)cc3O[C@@H]3COC[C@H]3F)c12` (racemic) [Example 2.100], 25 nM.
The same measure, in the same setting: then `Cc1cc(N=S2(=O)CCCC2)cc2ncnc(Nc3ccc(F)cc3O[C@@H]3COC[C@H]3F)c12` (racemic) [Example 2.101], with 6 nM; and `CS(C)(=O)=Nc1cc(Cl)c2c(Nc3ccc(F)cc3O[C@H]3COC[C@@H]3O)ncnc2c1` [Example 1.8], with 2 nM.
The same measure, in the same setting: then `CS(C)(=O)=Nc1cc(C2CC2)c2c(Nc3ccc(F)cc3O[C@H]3COC[C@@H]3O)ncnc2c1` [Example 1.10], with 21 nM; and `Cc1cc(N=S2(=O)CCCC2)cc2ncnc(Nc3ccc(F)cc3O[C@H]3CN(C)C[C@@H]3O)c12` [Example 2.61], with 12 nM; and `CS(=O)(=Nc1cc(F)c2c(Nc3ccc(F)cc3O[C@H]3COC[C@@H]3O)ncnc2c1)c1cccnc1` (stereo partly drawn) [Example 2.69], with 22 nM.
Turning to `CS(=O)(=Nc1cc(F)c2c(Nc3ccc(F)cc3O[C@H]3COC[C@@H]3O)ncnc2c1)C1CC1` (stereo partly drawn) [Example 2.73], the IC50 amounted to 20 nM.
As to `CS(=O)(=Nc1cc(F)c2c(Nc3ccc(F)cc3O[C@H]3COC[C@@H]3O)ncnc2c1)c1ccccc1` (stereo partly drawn) [Example 2.86], the IC50 is 13 nM.
On to `CS(=O)(=Nc1cc(F)c2c(Nc3ccc(F)cc3O[C@H]3COC[C@@H]3O)ncnc2c1)C1CCOCC1` (stereo partly drawn) [Example 2.88], for which the concentration for half-maximal inhibition (IC50) was 32 nM.
The same measure, in the same setting: then `CS(=O)(=Nc1cc(F)c2c(Nc3ccc(F)cc3O[C@H]3COC[C@@H]3O)ncnc2c1)c1ccncc1` (stereo partly drawn) [Example 2.97], with 71 nM.
Same read-out and setting: in the case of `COc1cc(N=S2(=O)CCC2)cc2ncnc(Nc3ccc(Cl)nc3O[C@H]3COC[C@@H]3O)c12` [Example 9.5] it was 1 nM.
On to `COc1cc(N=S(C)(=O)C2CCOCC2)cc2ncnc(Nc3ccc(F)cc3O[C@H]3COC[C@@H]3O)c12` (stereo partly drawn) [Example 9.11], for which the IC50 came out at 15 nM.
In the case of `COc1cc(N=S(C)(=O)C2CC2)cc2ncnc(Nc3ccc(F)cc3O[C@H]3COC[C@@H]3O)c12` (stereo partly drawn) [Example 9.22], the IC50 came out at 18 nM.
On the same count and under the same terms, in the case of `COc1cc(N=S2(=O)CCC(O)CC2)cc2ncnc(Nc3ccc(F)cc3O[C@H]3COC[C@@H]3O)c12` (stereo partly drawn) [Example 9.26] it was 7 nM; in that of `COc1cc(N=S(C)(=O)c2ccccc2)cc2ncnc(Nc3ccc(F)cc3O[C@H]3COC[C@@H]3O)c12` (stereo partly drawn) [Example 9.28], 13 nM; in that of `COc1cc(N=S(C)(=O)c2ccncc2)cc2ncnc(Nc3ccc(F)cc3O[C@H]3COC[C@@H]3O)c12` (stereo partly drawn) [Example 9.30], 43 nM.
Same read-out and setting: in the case of `Cc1cc(N=S2(=O)CCC2)cc2ncnc(Nc3ccc(F)cc3OC3CCC(O)OC3)c12` (stereo not drawn) [Example 12.1] it was 3 nM.
For `Cc1cc(N=S(C)(C)=O)cc2ncnc(Nc3ccc(F)cc3OC3CCC(O)OC3)c12` (stereo not drawn) [Example 12.2], the half-inhibitory concentration (IC50) turned out to be 3 nM.
Take `CO[C@H]1COC[C@H]1Oc1cc(F)ccc1Nc1ncnc2cc(N=S(C)(C)=O)cc(C)c12` [Example 14.7]: the IC50 is 7 nM.

In the next experiment the target is MNK1a (Homo sapiens (Human), UniProt Q9BUB5). As to the kind of experiment: MNK1 in vitro kinase assay (Assay 3), Z'-LYTE. The class given is biochemical.
Chain of MNK1a (Q9BUB5 other isoform, or with tags, fused parts or gaps): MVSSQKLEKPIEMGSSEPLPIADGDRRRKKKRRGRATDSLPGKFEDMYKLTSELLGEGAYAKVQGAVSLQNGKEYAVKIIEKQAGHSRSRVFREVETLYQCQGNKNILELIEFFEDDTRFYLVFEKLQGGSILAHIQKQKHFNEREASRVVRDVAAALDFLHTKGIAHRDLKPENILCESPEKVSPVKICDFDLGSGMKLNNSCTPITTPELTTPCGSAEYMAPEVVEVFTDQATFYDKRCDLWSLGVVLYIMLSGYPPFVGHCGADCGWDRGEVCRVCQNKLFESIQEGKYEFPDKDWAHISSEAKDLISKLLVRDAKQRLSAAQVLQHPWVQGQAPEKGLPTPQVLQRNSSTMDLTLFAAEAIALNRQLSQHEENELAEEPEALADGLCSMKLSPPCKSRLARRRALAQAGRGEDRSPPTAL
Details: not given
The text has this:
C. MNK1 In Vitro Kinase Assay (Assay 3)
MNK1 Data can be obtained from the MNK1 Z′-LYTE® assay. The MNK1 Z′-LYTE® screening protocol and assay conditions are also described on www.invitrogen.com.
The assay is described as follows:
The Z′-LYTE® biochemical assay employs a fluorescence-based, coupled-enzyme format and is based on the differential sensitivity of phosphorylated and non-phosphorylated peptides to proteolytic cleavage. The peptide substrate is labeled with two fluorophores—one at each end—that make up a FRET pair.
In the primary reaction, the kinase transfers the gamma-phosphate of ATP to a single tyrosine, serine or threonine residue in a synthetic FRET-peptide. In the secondary reaction, a site-specific protease recognizes and cleaves non-phosphorylated FRET-peptides. Phosphorylation of FRET-peptides suppresses cleavage by the Development Reagent. Cleavage disrupts FRET between the donor (i.e., coumarin) and acceptor (i.e., fluorescein) fluorophores on the FRET-peptide, whereas uncleaved, phosphorylated FRET-peptides maintain FRET. A ratiometric method, which calculates the ratio (the Emission Ratio) of donor emission to acceptor emission after excitation of the donor fluorophore at 400 nm, is used to quantitate reaction progress, as shown in the equation below.
The 2×MKNK1 (MNK1) mixture is prepared in 50 mM HEPES pH 7.5, 0.01% BRIJ-35, 10 mM MgCl2, 4 mM MnCl2, 1 mM EGTA, 2 mM DTT.
The Test Compounds are screened in 1% DMSO (final) in the well.
All Peptide/Kinase Mixtures are diluted to a 2× working concentration in the MNK1 Kinase Buffer.
All ATP Solutions are diluted to a 4× working concentration in Kinase Buffer (50 mM HEPES pH 7.5, 0.01% BRIJ-35, 10 mM MgCl2, 1 mM EGTA).
Development Reagent Solution:
The Development Reagent is diluted in Development Buffer
1. 2.5 μL—4× Test Compound
2. 5 μL—2× Peptide/Kinase Mixture
5. 60-minute Kinase Reaction incubation at room temperature
6. 5 μL—Development Reagent Solution
8. 60-minute Development Reaction incubation at room temperature
9. Read on fluorescence plate reader and analyze the data
Control C0%=Average Coumarin emission signal of the 0% Phos. Control F100%=Average Fluorescein emission signal of the 100% Phos. Control F0%=Average Fluorescein emission signal of the 0% Phos. Control Graphing Software
SelectScreen® Kinase Profiling Service uses XLfit from IDBS. […] The activity of MNK proteins can be assayed also by other in vitro kinase assay formats. […] In general, MNK kinase assays can be performed such that a MNK substrate such as a protein or a peptide, which may or may not include modifications as further described below, or others are phosphorylated by MNK proteins having enzymatic activity in vitro. The activity of a candidate agent can then be determined via its ability to decrease the enzymatic activity of the MNK protein. The kinase activity may be detected by change of the chemical, physical or immunological properties of the substrate due to phosphorylation.
Molecule `CO[C@@H]1COC[C@@H]1Oc1cc(F)ccc1Nc1ncnc2cc(N=S3(=O)CCCC3)cc(Cl)c12` (racemic) [Example 1.6] had an IC50 of 45 nM.

Staying with this experiment, now noted: compound concentration of 1 μM, read-out: MNK1 % INH.
On to `CO[C@H]1COC[C@H]1Oc1ncccc1Nc1ncnc2cc(N=S(C)(C)=O)cc(C)c12` (racemic) [Example 2.1], for which the inhibition at 1 µM was 88%.
As for `Cc1cc(N=S2(=O)CCCC2)cc2ncnc(Nc3cccnc3O[C@@H]3COC[C@@H]3O)c12` (racemic) [Example 2.3], the inhibition at 1 µM was found to be 102%.
Consider `Cc1cc(N=S(C)(C)=O)cc2ncnc(Nc3ccc(F)cc3O[C@H]3COC[C@H]3O)c12` (racemic) [Example 2.7], for which the inhibition at 1 µM turned out to be 97%.
As to `O=S1(=Nc2cc(F)c3c(Nc4cccnc4O[C@H]4COC[C@H]4O)ncnc3c2)CCCC1` (racemic) [Example 2.30], the inhibition at 1 µM was found to be 97%.
On the same count and under the same terms, then `Cc1cc(N=S2(=O)CCCCC2)cc2ncnc(Nc3cccnc3O[C@H]3COC[C@H]3O)c12` (racemic) [Example 2.31], with 94%.
`Cc1cc(N=S2(=O)CCC2)cc2ncnc(Nc3cccnc3O[C@H]3COC[C@H]3O)c12` (racemic) [Example 2.32]: the inhibition at 1 µM stood at 97%.
With `O=S1(=Nc2cc(F)c3c(Nc4cccnc4O[C@H]4COC[C@H]4O)ncnc3c2)CCC1` (racemic) [Example 2.33], the inhibition at 1 µM came to 91%.
Regarding `CO[C@@H]1COC[C@H]1Oc1ncccc1Nc1ncnc2cc(N=S(C)(C)=O)cc(C)c12` (racemic) [Example 2.34], the inhibition at 1 µM was determined as 70%.
For `CO[C@@H]1COC[C@H]1Oc1ncccc1Nc1ncnc2cc(N=S3(=O)CCC3)cc(C)c12` (racemic) [Example 2.35], the inhibition at 1 µM was 97%.
On to `CO[C@@H]1CC[C@@H](Oc2cc(F)ccc2Nc2ncnc3cc(N=S(C)(C)=O)cc(C)c23)CO1` (racemic) [Example 2.63], for which the inhibition at 1 µM stood at 102%.
Still for that read-out and setting: then `Cc1cc(N=S2(=O)CCC2)cc2ncnc(Nc3ccc(F)cc3O[C@@H]3COC[C@@H]3O)c12` (racemic) [Example 2.67], with 100%; and `Cc1cc(N=S(C)(=O)C2CC2)cc2ncnc(Nc3ccc(F)cc3O[C@@H]3COC[C@@H]3O)c12` (mixture of isomers) [Example 2.72], with 98%.
In the case of `Cc1cc(N=S2(=O)CCC2)cc2ncnc(Nc3ccc(F)cc3O[C@@H]3COC[C@@H]3O)c12` (single isomer, unassigned) [Example 1.36], the inhibition at 1 µM was 98%.
For the molecule `Cc1cc(N=S2(=O)CCC2)cc2ncnc(Nc3ccc(F)cc3O[C@H]3COC[C@H]3O)c12` (single isomer, unassigned) [Example 1.37], the inhibition at 1 µM is 97%.
